The values below come from patent US12115178B2, “Acylated active agents and methods of their use for the treatment of autoimmune disorders” (Flagship Pioneering Innovations V, Inc., priority 2018, dated 2024).

What all share (assay type): in vitro ADME
Data set [1] in a line: Assay 1. Stability in Simulated Gastric Fluid (SGF). The procedure, abridged: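 Compound at 1 μM final (from 1 mM DMSO stock) incubated at 37° C in SGF: NaCl medium at pH 1.6 with FaSSIF powder and 0.1 mg/mL pepsin, prepared fresh. Aliquots taken at T0 and regular intervals, quenched with equal volume acetonitrile; LC/MS gives degradation rate.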
The nature of data set [2]: Assay 2. Stability in Simulated Intestinal Fluid (SIF). Particulars: SIF pH 6.7 with pancreatin, 1 μM, 37° C. In a few lines:
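Compounds at 1 µM (from 1 mM DMSO stock) were incubated at 37 °C with agitation in simulated intestinal fluid: FaSSIF in pH 6.7 phosphate buffer with pancreatin. Aliquots taken from T0 onward were quenched with acetonitrile and analyzed by LC/MS for degradation rate.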

Data set [3] can be described thus: Assay 3. In vitro Colonic Material Stability Assay. As to conditions: colonic material slurry, anaerobic, 1 or 10 μM. As for the experimental part: Assay 3. In vitro Colonic Material Stability Assay. This assay was used to assess the stability of an acylated active agent in a large intestine. All experiments were performed in an anaerobic chamber containing 90% nitrogen, 5% hydrogen and 5% carbon dioxide. Colonic material was resuspended as a slurry (15% w/v final concentration) in pre-reduced, anaerobically sterilized dilution blanks (Anaerobe Systems AS-908). The colonic material was then inoculated into 96 well plates containing YCFAC media (Anaerobe Systems AS-680) or other suitable media (6.7 μL slurry into 1 mL total media). Compounds or groups of compounds were added to each individual well to reach a final analyte concentration of 1 or 10 μM, and the material was mixed by pipetting. Sample was removed after set timepoints (0, 120, 240, 480, 1440, 2880 minutes after initiation of the assay), quenched with acetonitrile containing internal standard, and analyzed by LC/MS.

The mark [4] stands for this setting: SGF pH 1.6 with pepsin, 1 μM, 37° C.

In the case of `CCC(=O)O[C@H]1[C@H](OC(=O)CCc2c[nH]c3ccccc23)OC[C@@H](OC(=O)CC)[C@H]1OC(=O)CC` [Compound 98, (2S,3R,4R,5R)-3,4,5-tris(propanoyloxy)oxan-2-yl 3-(1H-indol-3-yl)propanoate], in data set [1] (setting [4]), the “Assay 1 (SGF) (% Remaining @ 1 hour)” value is “B (25-75% of the tested compound remaining)”. Besides, the “Assay 2 (SIF) (% @ Remaining 4 hours)” value in data set [2] is listed as “A (<25% of the tested compound remaining)”. In data set [3], the “Assay 3 (% Remaining at 24 h)” value was “A (<25% of the tested compound remaining)”.
For the compound `O=C(Cc1c[nH]c2ccccc12)Oc1cc(C(=O)O)cc(OC(=O)Cc2c[nH]c3ccccc23)c1OC(=O)Cc1c[nH]c2ccccc12` [Compound 200, 3,4,5-tris({[2-(1H-indol-3-yl)acetyl]oxy})benzoic acid], the “Assay 1 (SGF) (% Remaining @ 1 hour)” value in data set [1] (setting [4]) is on record as “C (>75% of the tested compound remaining)”. Besides, the “Assay 2 (SIF) (% @ Remaining 4 hours)” value in data set [2] is recorded as “A (<25% of the tested compound remaining)”. In data set [3], the “Assay 3 (% Remaining at 24 h)” value was “A (<25% of the tested compound remaining)”.
As for `CCCC(=O)O[C@H]1[C@@H](Oc2ccc(N)cc2C(=O)O)OC[C@@H](OC(=O)CCC)[C@H]1OC(=O)CCC` [Compound 185, 5-amino-2-(((2R,3R,4R,5R)-3,4,5-tris(butyryloxy)tetrahydro-2H-pyran-2-yl)oxy)benzoic acid], the “Assay 1 (SGF) (% Remaining @ 1 hour)” value in data set [1] (setting [4]) is “C (>75% of the tested compound remaining)”. In addition, the “Assay 2 (SIF) (% @ Remaining 4 hours)” value in data set [2] was “B (25-75% of the tested compound remaining)”. In addition, the “Assay 3 (% Remaining at 24 h)” value in data set [3] is recorded as “B (25-75% of the tested compound remaining)”.
As to `CCCC(=O)O[C@@H]1[C@@H](OC(=O)CCC)[C@H](C)O[C@@H](Oc2ccc(N)cc2C(=O)O)[C@@H]1OC(=O)CCC` [Compound 39, 5-amino-2-(((2S,3R,4R,5S,6S)-3,4,5-tris(butyryloxy)-6-methyltetrahydro-2H-pyran-2-yl)oxy)benzoic acid], the “Assay 1 (SGF) (% Remaining @ 1 hour)” value in data set [1] (setting [4]) is given as “C (>75% of the tested compound remaining)”. Besides, the “Assay 2 (SIF) (% @ Remaining 4 hours)” value in data set [2] is recorded as “B (25-75% of the tested compound remaining)”. Further, in data set [3], the “Assay 3 (% Remaining at 24 h)” value is listed as “C (>75% of the tested compound remaining)”.
As to `CCC(=O)O[C@H]1[C@H](OC)OC[C@@H](OC(=O)CC)[C@H]1OC(=O)CC` [Compound 51, (2R,3R,4R,5R)-2-methoxy-3,5-bis(propanoyloxy)oxan-4-yl propanoate], the “Assay 1 (SGF) (% Remaining @ 1 hour)” value in data set [1] (setting [4]) was “C (>75% of the tested compound remaining)”. Also, the “Assay 2 (SIF) (% @ Remaining 4 hours)” value in data set [2] is “C (>75% of the tested compound remaining)”. Besides, the “Assay 3 (% Remaining at 24 h)” value in data set [3] is listed as “B (25-75% of the tested compound remaining)”.
Regarding `CCC(=O)O[C@@H]1[C@@H](OC(=O)CC)[C@H](C)O[C@@H](OC(=O)/C=C/c2c[nH]c3ccccc23)[C@@H]1OC(=O)CC` [Compound 102, (2S,3R,4R,5S,6S)-6-methyl-3,4,5-tris(propanoyloxy)oxan-2-yl (2E)-3-(1H-indol-3-yl)prop-2-enoate], the “Assay 1 (SGF) (% Remaining @ 1 hour)” value in data set [1] (setting [4]) was “C (>75% of the tested compound remaining)”. Moreover, the “Assay 2 (SIF) (% @ Remaining 4 hours)” value in data set [2] was “B (25-75% of the tested compound remaining)”. For the same compound, in data set [3], the “Assay 3 (% Remaining at 24 h)” value is reported as “A (<25% of the tested compound remaining)”.
For `CCC(=O)O[C@H]1[C@@H](OC(=O)CCc2c[nH]c3ccccc23)OC[C@@H](OC(=O)CC)[C@H]1OC(=O)CC` [Compound 94, (2R,3R,4R,5R)-3,4,5-tris(propanoyloxy)oxan-2-yl 3-(1H-indol-3-yl)propanoate] the same measures were “C (>75% of the tested compound remaining)”, “A (<25% of the tested compound remaining)” and “A (<25% of the tested compound remaining)”.
For the compound `CCC(=O)OC[C@H]1O[C@H](OC)[C@H](OC(=O)CC)[C@@H](OC(=O)CC)[C@H]1OC(=O)CC` [Compound 57, [(2R,3S,4S,5R,6S)-6-methoxy-3,4,5-tris(propanoyloxy)oxan-2-yl]methyl propanoate], the “Assay 1 (SGF) (% Remaining @ 1 hour)” value in data set [1] (setting [4]) is “C (>75% of the tested compound remaining)”. In addition, the “Assay 2 (SIF) (% @ Remaining 4 hours)” value in data set [2] was “A (<25% of the tested compound remaining)”. Also, the “Assay 3 (% Remaining at 24 h)” value in data set [3] is “A (<25% of the tested compound remaining)”.
On to `CCC(=O)OC[C@H]1O[C@H](OC)[C@H](OC(=O)CC)[C@@H](OC(=O)CC)[C@@H]1OC(=O)CC` [Compound 55, [(2R,3R,4S,5R,6S)-6-methoxy-3,4,5-tris(propanoyloxy)oxan-2-yl]methyl propanoate], for which, in data set [1] (setting [4]), the “Assay 1 (SGF) (% Remaining @ 1 hour)” value is given as “C (>75% of the tested compound remaining)”. Further, the “Assay 2 (SIF) (% @ Remaining 4 hours)” value in data set [2] is on record as “A (<25% of the tested compound remaining)”. Further, in data set [3], the “Assay 3 (% Remaining at 24 h)” value is recorded as “A (<25% of the tested compound remaining)”.
Consider `CCC(=O)O[C@@H]1[C@@H](OC(=O)CC)[C@@H](OC(=O)Cc2c[nH]c3ccccc23)OC[C@H]1OC(=O)CC` [Compound 117, (2R,3R,4S,5R)-2-{[2-(1H-indol-3-yl)acetyl]oxy}-4,5-bis(propanoyloxy)oxan-3-yl propanoate], for which the “Assay 1 (SGF) (% Remaining @ 1 hour)” value in data set [1] (setting [4]) is recorded as “C (>75% of the tested compound remaining)”. Moreover, the “Assay 2 (SIF) (% @ Remaining 4 hours)” value in data set [2] is on record as “A (<25% of the tested compound remaining)”. Besides, the “Assay 3 (% Remaining at 24 h)” value in data set [3] was “A (<25% of the tested compound remaining)”.
For `CCCC(=O)O[C@H]1[C@H](OC(=O)CCC)[C@H](OC(=O)CCc2c[nH]c3ccccc23)O[C@@H](C)[C@H]1OC(=O)CCC` [Compound 84, (2S,3S,4R,5R,6S)-4,5-bis(butanoyloxy)-2-{[3-(1H-indol-3-yl)propanoyl]oxy}-6-methyloxan-3-yl butanoate], the “Assay 1 (SGF) (% Remaining @ 1 hour)” value in data set [1] (setting [4]) is reported as “C (>75% of the tested compound remaining)”. The “Assay 2 (SIF) (% @ Remaining 4 hours)” value in data set [2] is listed as “A (<25% of the tested compound remaining)”. Further, the “Assay 3 (% Remaining at 24 h)” value in data set [3] was “A (<25% of the tested compound remaining)”.
For `CCC(=O)OC[C@H]1O[C@@H](OC(=O)Cc2c[nH]c3ccccc23)[C@H](OC(=O)CC)[C@@H](OC(=O)CC)[C@@H]1OC(=O)CC` [Compound 111, [(2R,3R,4S,5R,6S)-6-{[2-(1H-indol-3-yl)acetyl]oxy}-3,4,5-tris(propanoyloxy)oxan-2-yl]methyl propanoate], in data set [1] (setting [4]), the “Assay 1 (SGF) (% Remaining @ 1 hour)” value is “C (>75% of the tested compound remaining)”. Also, the “Assay 2 (SIF) (% @ Remaining 4 hours)” value in data set [2] is recorded as “A (<25% of the tested compound remaining)”. Besides, in data set [3], the “Assay 3 (% Remaining at 24 h)” value is “A (<25% of the tested compound remaining)”.
Consider `CCC(=O)O[C@@H]1[C@@H](OC(=O)CC)[C@H](OC)OC[C@H]1OC(=O)CC` [Compound 73, (2R,3R,4S,5R)-2-methoxy-4,5-bis(propanoyloxy)oxan-3-yl propanoate], for which the “Assay 1 (SGF) (% Remaining @ 1 hour)” value in data set [1] (setting [4]) is “C (>75% of the tested compound remaining)”. The “Assay 2 (SIF) (% @ Remaining 4 hours)” value in data set [2] was “A (<25% of the tested compound remaining)”. Moreover, the “Assay 3 (% Remaining at 24 h)” value in data set [3] is on record as “A (<25% of the tested compound remaining)”.
Regarding `CCCC(=O)O[C@@H]1[C@@H](OC(=O)CCC)[C@@H](Oc2ccc(N)cc2C(=O)O)OC[C@@H]1OC(=O)CCC` [Compound 22, 5-amino-2-[(2R,3R,4S,5S)-3,4,5-tri(butanoyloxy)tetrahydropyran-2-yl]oxy-benzoic acid], the “Assay 1 (SGF) (% Remaining @ 1 hour)” value in data set [1] (setting [4]) is “C (>75% of the tested compound remaining)”. In data set [2], the “Assay 2 (SIF) (% @ Remaining 4 hours)” value is recorded as “B (25-75% of the tested compound remaining)”. Also, in data set [3], the “Assay 3 (% Remaining at 24 h)” value is recorded as “B (25-75% of the tested compound remaining)”.
For the compound `CCC(=O)O[C@@H]1[C@@H](OC(=O)CC)[C@H](OC(=O)CCc2c[nH]c3ccccc23)OC[C@@H]1OC(=O)CC` [Compound 74, (2S,3R,4S,5S)-3,4,5-tris(propanoyloxy)oxan-2-yl 3-(1H-indol-3-yl)propanoate], the “Assay 1 (SGF) (% Remaining @ 1 hour)” value in data set [1] (setting [4]) is “C (>75% of the tested compound remaining)”. The “Assay 2 (SIF) (% @ Remaining 4 hours)” value in data set [2] is recorded as “A (<25% of the tested compound remaining)”. The “Assay 3 (% Remaining at 24 h)” value in data set [3] is “A (<25% of the tested compound remaining)”.
For `CCC(=O)O[C@H]1[C@H](OC(=O)CC)[C@H](OC(=O)CCc2c[nH]c3ccccc23)O[C@@H](C)[C@H]1OC(=O)CC` [Compound 123, (2S,3S,4R,5R,6S)-6-methyl-3,4,5-tris(propanoyloxy)oxan-2-yl 3-(1H-indol-3-yl)propanoate], the “Assay 1 (SGF) (% Remaining @ 1 hour)” value in data set [1] (Batch 1, SGF) is on record as “C (>75% of the tested compound remaining)”; in data set [1] (Batch 2, SGF) it was “B (25-75% of the tested compound remaining)”. For the same compound, the “Assay 2 (SIF) (% @ Remaining 4 hours)” value in data set [2] is listed as “C (>75% of the tested compound remaining)”. The “Assay 3 (% Remaining at 24 h)” value in data set [3] was “A (<25% of the tested compound remaining)”.
With `CCCC(=O)O[C@@H]1[C@@H](OC(=O)CCC)[C@H](OC(=O)CCc2c[nH]c3ccccc23)OC[C@H]1OC(=O)CCC` [Compound 97, (2S,3R,4S,5R)-4,5-bis(butanoyloxy)-2-{[3-(1H-indol-3-yl)propanoyl]oxy}oxan-3-yl butanoate], the “Assay 1 (SGF) (% Remaining @ 1 hour)” value in data set [1] (setting [4]) is recorded as “B (25-75% of the tested compound remaining)”. Moreover, the “Assay 3 (% Remaining at 24 h)” value in data set [3] is “A (<25% of the tested compound remaining)”.
